Laboratory results published in ChEMBL document CHEMBL1201862, “PubChem BioAssay data set” (2004).
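Following 48 hours of exposure in 96-well plates, responses at five concentrations were used to interpolate endpoints linearly. Here, GI50 denotes the concentration required for 50% inhibition of growth.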 Active and inactive are the calls of the source. Rule as the data show it: active = GI50 up to about 1.1 µM and inactive = higher.

How the values were obtained:
Assay in all cases: NCI-60 cell line screen, 48 h
[1] = test system: BT-549
[2] = test system: CAKI-1
[3] = test system: DLD-1
[4] = test system: DMS-114
[5] = test system: DMS-273
[6] = test system: DU-145
[7] = test system: EKVX
[8] = test system: HCC 2998
[9] = test system: HOP-18
[10] = test system: Hs-578T
[11] = test system: KM-20L2
[12] = test system: LOX IMVI
[13] = test system: LXFL 529
[14] = test system: M19-MEL
[15] = test system: MCF7
[16] = test system: MDA-MB-231
[17] = test system: MDA-MB-435
[18] = test system: MDA-N
[19] = test system: MOLT-4
[20] = test system: NCI-H226
[21] = test system: NCI/ADR-RES
[22] = test system: OVCAR-3
[23] = test system: OVCAR-4
[24] = test system: PC-3
[25] = test system: RXF 631
[26] = test system: SNB-78
[27] = test system: UACC-62
[28] = test system: 786-0
[29] = test system: A498
[30] = test system: A549
[31] = test system: ACHN
[32] = test system: COLO 205
[33] = test system: HL-60
[34] = test system: HOP-92
[35] = test system: HT-29
[36] = test system: IGROV-1
[37] = test system: K562
[38] = test system: KM12
[39] = test system: M14
[40] = test system: NCI-H23
[41] = test system: NCI-H460
[42] = test system: NCI-H522
[43] = test system: OVCAR-5
[44] = test system: OVCAR-8
[45] = test system: RPMI-8226
[46] = test system: RXF 393
[47] = test system: SF-268
[48] = test system: SF-295
[49] = test system: SF-539
[50] = test system: SK-MEL-28
[51] = test system: SK-MEL-5
[52] = test system: SK-OV-3
[53] = test system: SN12C
[54] = test system: SNB-19
[55] = test system: SNB-75
[56] = test system: SR
[57] = test system: SW-620
[58] = test system: TK-10
[59] = test system: U-251
[60] = test system: UACC-257
[61] = test system: UO-31
[62] = test system: XF498
[63] = test system: CCRF-CEM
[64] = test system: HCT-116
[65] = test system: HCT-15
[66] = test system: HOP-62
[67] = test system: Malme-3M
[68] = test system: SK-MEL-2

For `O=C1/C(=C/c2ccc(Cl)c(Cl)c2)CN(C(=O)CCN2CCOCC2)C/C1=C\c1ccc(Cl)c(Cl)c1`, the GI50 [1] was 0.0169 µM (active), the GI50 [2] was 1.51 µM (inactive) and the GI50 [3] was 0.182 µM (active). For the same compound, the GI50 [4] was 0.746 µM (active), the GI50 [5] was 1.12 µM (inactive) and the GI50 [6] was 0.0373 µM (active). The GI50 [7] was 2.4 µM (inactive), the GI50 [8] was 2.09 µM (inactive) and the GI50 [9] was 2.55 µM (inactive). For the same compound, the GI50 [10] was 7.76 µM (inactive), the GI50 [11] was 1.38 µM (inactive) and the GI50 [12] was 0.00217 µM (active). The GI50 [13] was 1.56 µM (inactive), the GI50 [14] was 1.64 µM (inactive) and the GI50 [15] was 0.0184 µM (active). The GI50 [16] was 0.00286 µM (active), the GI50 [17] was 0.0121 µM (active) and the GI50 [18] was 0.0145 µM (active). For the same compound, the GI50 [19] was 0.00283 µM (active), the GI50 [20] was 2.04 µM (inactive) and the GI50 [21] was 0.0043 µM (active). For the same compound, the GI50 [22] was 0.00454 µM (active), the GI50 [23] was 0.00395 µM (active) and the GI50 [24] was 0.00331 µM (active). For the same compound, the GI50 [25] was 2.94 µM (inactive), the GI50 [26] was 2.66 µM (inactive) and the GI50 [27] was 1.71 µM (inactive).
In the case of `C/N=C(\N=c1/ss/c(=N\C)n1C)N(C)C.[O-][Cl+3]([O-])([O-])O`, the GI50 [28] is reported as > 100 µM (inactive), the GI50 [29] is reported as 29.2 µM (inactive) and the GI50 [30] is reported as > 100 µM (inactive). The GI50 [31] was > 100 µM (inactive), the GI50 [2] was 78.2 µM (inactive) and the GI50 [32] was 28.2 µM (inactive). The GI50 [3] was 94.6 µM (inactive), the GI50 [4] was > 100 µM (inactive) and the GI50 [5] was 37.8 µM (inactive). For the same compound, the GI50 [7] was > 100 µM (inactive), the GI50 [8] was > 100 µM (inactive) and the GI50 [33] was 43.5 µM (inactive). The GI50 [9] was 23.9 µM (inactive), the GI50 [34] was > 100 µM (inactive) and the GI50 [35] was > 100 µM (inactive). The GI50 [36] was > 100 µM (inactive), the GI50 [37] was 40.7 µM (inactive) and the GI50 [11] was > 100 µM (inactive). For the same compound, the GI50 [38] was > 100 µM (inactive), the GI50 [12] was 45.9 µM (inactive) and the GI50 [13] was > 100 µM (inactive). For the same compound, the GI50 [39] was > 100 µM (inactive), the GI50 [14] was > 100 µM (inactive) and the GI50 [19] was 59.7 µM (inactive). For the same compound, the GI50 [20] was 45.2 µM (inactive), the GI50 [40] was 54.6 µM (inactive) and the GI50 [41] was > 100 µM (inactive). For the same compound, the GI50 [42] was 76 µM (inactive), the GI50 [22] was 53.1 µM (inactive) and the GI50 [23] was > 100 µM (inactive). The GI50 [43] was > 100 µM (inactive), the GI50 [44] was 97.1 µM (inactive) and the GI50 [45] was 74.6 µM (inactive). The GI50 [46] was > 100 µM (inactive), the GI50 [25] was > 100 µM (inactive) and the GI50 [47] was > 100 µM (inactive). For the same compound, the GI50 [48] was > 100 µM (inactive), the GI50 [49] was 79.1 µM (inactive) and the GI50 [50] was > 100 µM (inactive). For the same compound, the GI50 [51] was > 100 µM (inactive), the GI50 [52] was > 100 µM (inactive) and the GI50 [53] was > 100 µM (inactive). For the same compound, the GI50 [54] was > 100 µM (inactive), the GI50 [55] was > 100 µM (inactive) and the GI50 [56] was 70.8 µM (inactive). For the same compound, the GI50 [57] was > 100 µM (inactive), the GI50 [58] was > 100 µM (inactive) and the GI50 [59] was > 100 µM (inactive). The GI50 [60] was 97.3 µM (inactive), the GI50 [27] was > 100 µM (inactive) and the GI50 [61] was > 100 µM (inactive). For the same compound, the GI50 [62] was > 100 µM (inactive).
With `O=C(CC1(O)C(=O)Nc2ccc(Br)cc21)c1ccc(Cl)cc1` (stereo unspecified) the GI50 [28] was 75.7 µM (inactive), the GI50 [29] was > 100 µM (inactive) and the GI50 [30] was > 100 µM (inactive). For the same compound, the GI50 [31] was > 100 µM (inactive), the GI50 [63] was 38.9 µM (inactive) and the GI50 [32] was > 100 µM (inactive). For the same compound, the GI50 [3] was 70.8 µM (inactive), the GI50 [7] was > 100 µM (inactive) and the GI50 [64] was 44.4 µM (inactive). For the same compound, the GI50 [65] was greater than 100 µM, the GI50 [33] was > 10 µM (inactive) and the GI50 [9] was 72.4 µM (inactive). For the same compound, the GI50 [66] was 68.9 µM (inactive), the GI50 [34] was 35.2 µM (inactive) and the GI50 [35] was 42 µM (inactive). For the same compound, the GI50 [36] was > 100 µM (inactive), the GI50 [37] was 58.7 µM (inactive) and the GI50 [11] was > 100 µM (inactive). For the same compound, the GI50 [38] was 47.4 µM (inactive), the GI50 [12] was 18.2 µM (inactive) and the GI50 [13] was > 100 µM (inactive). For the same compound, the GI50 [39] was 83.2 µM (inactive), the GI50 [19] was 43.3 µM (inactive) and the GI50 [67] was > 100 µM (inactive). The GI50 [20] was > 100 µM (inactive), the GI50 [40] was 67.6 µM (inactive) and the GI50 [41] was > 100 µM (inactive). For the same compound, the GI50 [42] was > 100 µM (inactive), the GI50 [22] was > 100 µM (inactive) and the GI50 [23] was 69.7 µM (inactive). For the same compound, the GI50 [43] was > 100 µM (inactive), the GI50 [44] was 52 µM (inactive) and the GI50 [45] was 42.3 µM (inactive). For the same compound, the GI50 [46] was 52.2 µM (inactive), the GI50 [25] was 31.5 µM (inactive) and the GI50 [47] was > 100 µM (inactive). For the same compound, the GI50 [48] was > 100 µM (inactive), the GI50 [49] was 50.7 µM (inactive) and the GI50 [50] was > 100 µM (inactive). The GI50 [68] was > 100 µM (inactive), the GI50 [51] was > 100 µM (inactive) and the GI50 [52] was > 100 µM (inactive). For the same compound, the GI50 [53] was 77.8 µM (inactive), the GI50 [54] was 84.9 µM (inactive) and the GI50 [55] was 16.3 µM (inactive). The GI50 [26] was 83.8 µM (inactive), the GI50 [57] was 43.2 µM (inactive) and the GI50 [58] was > 100 µM (inactive). For the same compound, the GI50 [59] was 27.6 µM (inactive), the GI50 [60] was 30.2 µM (inactive) and the GI50 [27] was 36.2 µM (inactive). The GI50 [61] was > 100 µM (inactive).
